This is an account of results in patent publication US7553864B2, “Compounds for the treatment of inflammatory disorders and microbial diseases” (Schering Corporation, priority 2005, dated 2009).

For the test, the system named is LpxC enzyme. Put plainly: LpxC enzyme assay (RapidFire high-throughput mass spectrometry). The test is classed as biochemical. On the procedure: The standard LpxC assay consists of 0.2 nM LpxC enzyme, 1.0 μM UDP-3-O—(R-3-hydroxymyristoyl)-N-acetylglucosamine, and test compound, in assay buffer and 2% DMSO. Assay buffer is comprised of 25 mM HEPES, pH 7.3, 150 mM NaCl, 2.0 mM DTT, and 0.01% BSA. The enzyme reaction is carried out in a 96-well assay plate, in a final volume of 102 μL. Solutions of test compounds are prepared in 100% DMSO. Reaction additions, in order, are (1) 2.0 μL compound solution, (2) 80 μL of assay buffer, (3) 10 μL of 10 μM UDP-3-O—(R-3-hydroxymyristoyl)-N-acetylglucosamine (in assay buffer) and, (4) 10 μL of LpxC enzyme (20 nM in assay buffer) to initiate the reaction. In positive control reactions, addition (1) has 2.0 μL of 100% DMSO (without compound); these reactions are used as the total signal (TSB) value. Reactions are incubated at room temperature for 60 minutes when 10 μL of 1 N HCl is added to stop the reaction. The plate is shaken by hand for 10 seconds to ensure complete quenching. Assay plates are sealed with foil tape, and stored at −80° C. for 24-48 hr prior to analysis.
The concentrations of substrate and product in the reaction mixtures are determined with BioTrove's proprietary RapidFire™ high-throughput mass spectrometry (HTMS). Assay mixtures are partially purified with reverse phase chromatography, where they are washed with water containing 5 mM ammonium formate and eluted onto the mass spectrometer in 80% acetonitrile, 20% water, and 5 mM ammonium formate. The mass spectrometry peak areas of the substrate and product are measured to determine the concentration of these analytes. The assay signal is the percentage of substrate that is converted to product. Percent inhibition, % I, in test samples is determined from the following equation: […]

[1] abbreviates: concentration 0.10 (unit not given).
[2] abbreviates: concentration 0.20 (unit not given).
Where [3] appears, read: concentration 0.39 (unit not given).
Setting [4] is: concentration 0.78 (unit not given).
Where [5] appears, read: concentration 1.56 (unit not given).
[6] abbreviates: concentration 3.13 (unit not given).
Setting [7] is: concentration 6.25 (unit not given).
Setting [8] is: concentration 12.50 (unit not given).
[9] abbreviates: concentration 25 (unit not given).
Where [10] appears, read: concentration 50 (unit not given).

Consider `CN(C)C(=O)[C@H](O)[C@@H](O)C(=O)Nc1ccc(-c2ccc3ccccc3c2)cc1` [Compound 82], for which the “LpxC enzyme assay rating (% inhibition at indicated concentrations)” value reads like this: under setting [1], “C (less than 10% inhibition)”; under setting [2], “B (10-30% inhibition)”; under setting [3], “C (less than 10% inhibition)”; under setting [4], “C (less than 10% inhibition)”; under setting [5], “C (less than 10% inhibition)”; under setting [6], “B (10-30% inhibition)”. Further, the “LpxC enzyme assay rating (% inhibition at indicated concentrations)” value by setting is: under setting [7], “B (10-30% inhibition)”; under setting [8], “A (greater than 30% inhibition)”; under setting [9], “A (greater than 30% inhibition)”.
As for `CNC(=O)[C@H](O)[C@@H](O)C(=O)Nc1ccc(-c2ccccc2)cc1` [Compound 27], the “LpxC enzyme assay rating (% inhibition at indicated concentrations)” value is “C (less than 10% inhibition)” under setting [1]; “C (less than 10% inhibition)” under setting [2]; “C (less than 10% inhibition)” under setting [3]; “C (less than 10% inhibition)” under setting [4]; “C (less than 10% inhibition)” under setting [5]; “B (10-30% inhibition)” under setting [6]. Besides, the “LpxC enzyme assay rating (% inhibition at indicated concentrations)” value under setting [7] is “B (10-30% inhibition)”, the “LpxC enzyme assay rating (% inhibition at indicated concentrations)” value under setting [8] was “B (10-30% inhibition)”, the “LpxC enzyme assay rating (% inhibition at indicated concentrations)” value under setting [9] is given as “B (10-30% inhibition)” and the “LpxC enzyme assay rating (% inhibition at indicated concentrations)” value under setting [10] is “B (10-30% inhibition)”.
For the molecule `CNC(=O)[C@H](O)[C@@H](O)C(=O)N1CCC(c2ccc(C(F)(F)F)cc2)CC1` [Compound 35], the “LpxC enzyme assay rating (% inhibition at indicated concentrations)” value under setting [1] was “C (less than 10% inhibition)”; the “LpxC enzyme assay rating (% inhibition at indicated concentrations)” value under setting [2] is reported as “C (less than 10% inhibition)”; the “LpxC enzyme assay rating (% inhibition at indicated concentrations)” value under setting [3] was “C (less than 10% inhibition)”; the “LpxC enzyme assay rating (% inhibition at indicated concentrations)” value under setting [4] is “C (less than 10% inhibition)”; the “LpxC enzyme assay rating (% inhibition at indicated concentrations)” value under setting [5] is reported as “B (10-30% inhibition)”; the “LpxC enzyme assay rating (% inhibition at indicated concentrations)” value under setting [6] is on record as “C (less than 10% inhibition)”. Besides, the “LpxC enzyme assay rating (% inhibition at indicated concentrations)” value was “C (less than 10% inhibition)” under setting [7], “C (less than 10% inhibition)” under setting [8], “C (less than 10% inhibition)” under setting [9] and “B (10-30% inhibition)” under setting [10].
Regarding `CNC(=O)[C@H](O)[C@@H](O)C(=O)N1CCN(c2ccc(-c3ccccc3)cc2)CC1` [Compound 30], the “LpxC enzyme assay rating (% inhibition at indicated concentrations)” value under setting [1] is reported as “C (less than 10% inhibition)”; the “LpxC enzyme assay rating (% inhibition at indicated concentrations)” value under setting [2] is given as “B (10-30% inhibition)”; the “LpxC enzyme assay rating (% inhibition at indicated concentrations)” value under setting [3] is listed as “B (10-30% inhibition)”; the “LpxC enzyme assay rating (% inhibition at indicated concentrations)” value under setting [4] is reported as “C (less than 10% inhibition)”; the “LpxC enzyme assay rating (% inhibition at indicated concentrations)” value under setting [5] is “C (less than 10% inhibition)”; the “LpxC enzyme assay rating (% inhibition at indicated concentrations)” value under setting [6] is recorded as “B (10-30% inhibition)”. For the same molecule, the “LpxC enzyme assay rating (% inhibition at indicated concentrations)” value was “B (10-30% inhibition)” under setting [7], “B (10-30% inhibition)” under setting [8], “B (10-30% inhibition)” under setting [9] and “A (greater than 30% inhibition)” under setting [10].
As to `CN1CCN(c2ccc(NC(=O)[C@H](O)[C@@H](O)C(=O)N(C)C)cc2)CC1` [Compound 55], the “LpxC enzyme assay rating (% inhibition at indicated concentrations)” value runs as follows: under setting [1], “C (less than 10% inhibition)”; under setting [2], “B (10-30% inhibition)”; under setting [3], “C (less than 10% inhibition)”; under setting [4], “B (10-30% inhibition)”; under setting [5], “B (10-30% inhibition)”; under setting [6], “B (10-30% inhibition)”. Moreover, the “LpxC enzyme assay rating (% inhibition at indicated concentrations)” value was “C (less than 10% inhibition)” under setting [7], “C (less than 10% inhibition)” under setting [8], “B (10-30% inhibition)” under setting [9] and “B (10-30% inhibition)” under setting [10].
Take `CN(C)C(=O)[C@H](O)[C@@H](O)C(=O)Nc1ccc(C#Cc2ccccc2)cc1` [Compound 43]: the “LpxC enzyme assay rating (% inhibition at indicated concentrations)” value was “C (less than 10% inhibition)” under setting [1]; “B (10-30% inhibition)” under setting [2]; “C (less than 10% inhibition)” under setting [3]; “C (less than 10% inhibition)” under setting [4]; “B (10-30% inhibition)” under setting [5]; “B (10-30% inhibition)” under setting [6]. Besides, the “LpxC enzyme assay rating (% inhibition at indicated concentrations)” value reads like this: under setting [7], “B (10-30% inhibition)”; under setting [8], “A (greater than 30% inhibition)”; under setting [9], “A (greater than 30% inhibition)”; under setting [10], “A (greater than 30% inhibition)”.
Take `CN(C)CCOc1ccc(NC(=O)[C@H](O)[C@@H](O)C(=O)N2CCCC2)cc1` [Compound 73]: the “LpxC enzyme assay rating (% inhibition at indicated concentrations)” value runs as follows: under setting [1], “C (less than 10% inhibition)”; under setting [2], “B (10-30% inhibition)”; under setting [3], “C (less than 10% inhibition)”; under setting [4], “B (10-30% inhibition)”; under setting [5], “C (less than 10% inhibition)”; under setting [6], “C (less than 10% inhibition)”. Further, the “LpxC enzyme assay rating (% inhibition at indicated concentrations)” value is listed as “C (less than 10% inhibition)” under setting [7], “C (less than 10% inhibition)” under setting [8], “C (less than 10% inhibition)” under setting [9] and “C (less than 10% inhibition)” under setting [10].
`O=C(Nc1ccc(C#Cc2ccccc2)cc1)[C@H](O)[C@@H](O)C(=O)N1CCCC1` [Compound 63]: the “LpxC enzyme assay rating (% inhibition at indicated concentrations)” value by setting is: under setting [1], “B (10-30% inhibition)”; under setting [2], “B (10-30% inhibition)”; under setting [3], “B (10-30% inhibition)”; under setting [4], “C (less than 10% inhibition)”; under setting [5], “B (10-30% inhibition)”; under setting [6], “B (10-30% inhibition)”. The “LpxC enzyme assay rating (% inhibition at indicated concentrations)” value was “B (10-30% inhibition)” under setting [7], “A (greater than 30% inhibition)” under setting [8], “A (greater than 30% inhibition)” under setting [9] and “A (greater than 30% inhibition)” under setting [10].
For the molecule `CNC(=O)[C@H](O)[C@@H](O)C(=O)Nc1ccc(N2CCN(C)CC2)cc1` [Compound 38], the “LpxC enzyme assay rating (% inhibition at indicated concentrations)” value is recorded as “C (less than 10% inhibition)” under setting [1]; “C (less than 10% inhibition)” under setting [2]; “C (less than 10% inhibition)” under setting [3]; “C (less than 10% inhibition)” under setting [4]; “C (less than 10% inhibition)” under setting [5]; “C (less than 10% inhibition)” under setting [6]. Besides, the “LpxC enzyme assay rating (% inhibition at indicated concentrations)” value runs as follows: under setting [7], “C (less than 10% inhibition)”; under setting [8], “C (less than 10% inhibition)”; under setting [9], “C (less than 10% inhibition)”; under setting [10], “B (10-30% inhibition)”.
